In general, IC50 refers to the point on the concentration scale where inhibition reaches its midpoint. A lower IC50 goes with inhibition by little substance. Usually Ki stands for a dissociation constant, usually derived from enzyme kinetics or from competition with a known ligand. Read a low Ki as tighter binding.

The values that follow come from doi:10.64898/2025.12.08.692997v2 (biorxiv, 2025).

Like-named read-outs stand apart in the source and are kept apart here. Bounds are passed on as bounds.

The target of assay [1] is human EphB4-His ectodomain - human EphrinB2-Fc ectodomain (EphB4-EphrinB2) (Homo sapiens, UniProt P52799+P54760). Put plainly: biolayer interferometry, AUC. The assay is classed as binding. The settings on record: read-out: % inhibition at 3.2 μM. Background: In BLI a coated tip is dipped into the sample, and binding shifts an interference pattern.
Assay [2] addresses T1, human EphB2-His ectodomain - human EphrinB2-Fc ectodomain (EphB2-EphrinB2 tetramer) (Homo sapiens, UniProt P29323+P52799). Put plainly: biochemical. The settings on record: EphrinB2-EphB2 IC50 (Absolute, µM).
Target sequence in this assay (P52799 28-229): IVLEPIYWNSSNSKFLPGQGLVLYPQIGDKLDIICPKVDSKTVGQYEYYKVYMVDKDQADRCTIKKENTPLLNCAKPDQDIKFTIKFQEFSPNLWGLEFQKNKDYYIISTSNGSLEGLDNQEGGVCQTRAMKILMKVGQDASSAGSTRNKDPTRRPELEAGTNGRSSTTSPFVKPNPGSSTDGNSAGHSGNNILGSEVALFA
Target sequence in this assay (P29323 19-543): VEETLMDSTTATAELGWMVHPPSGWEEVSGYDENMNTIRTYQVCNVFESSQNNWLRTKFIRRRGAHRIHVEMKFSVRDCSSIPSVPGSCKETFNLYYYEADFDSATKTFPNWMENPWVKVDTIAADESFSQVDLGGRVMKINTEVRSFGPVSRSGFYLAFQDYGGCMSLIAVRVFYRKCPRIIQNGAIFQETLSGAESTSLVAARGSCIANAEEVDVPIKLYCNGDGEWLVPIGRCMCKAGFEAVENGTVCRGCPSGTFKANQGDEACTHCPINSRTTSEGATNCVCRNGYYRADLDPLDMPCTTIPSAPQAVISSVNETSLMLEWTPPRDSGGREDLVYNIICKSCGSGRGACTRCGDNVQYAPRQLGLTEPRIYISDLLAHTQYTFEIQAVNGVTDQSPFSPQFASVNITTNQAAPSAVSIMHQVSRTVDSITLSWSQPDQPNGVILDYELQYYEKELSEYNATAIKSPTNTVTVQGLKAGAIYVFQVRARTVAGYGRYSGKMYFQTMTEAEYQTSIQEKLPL
Assay [3] has as its target T1, human EphB2-His ectodomain - human EphrinB2-Fc ectodomain (EphB2-EphrinB2 tetramer). Put plainly: biolayer interferometry, AUC. The format is binding. The settings on record: read-out: % inhibition at 3.2 μM.
Target sequence in this assay (P29323 19-543): as above
Target sequence in this assay (P52799 28-229): as the sequence (P52799 28-229) above
Another assay concerns the target EphB1-EphrinB2 (Homo sapiens, UniProt P52799+P54762). Put plainly: biolayer interferometry, AUC. The assay is classed as binding. The note with it: read-out: % inhibition at 3.2 μM.
Assay [4] has as its target EphrinB2-EphB1 (immobilized human EphrinB2, 25 nM soluble human EphB1) (Homo sapiens, UniProt P52799+P54762). Put plainly: biochemical. The note with it: read-out: % Inhibited (AUC) Association.
For assay [5], the target named is T1, human EphB2-His ectodomain - human EphrinB2-Fc ectodomain (EphB2-EphrinB2 tetramer). Put plainly: biochemical.
Target sequence in this assay (P52799 28-229): as above
Target sequence in this assay (P29323 19-543): as the sequence (P29323 19-543) above
The target is the same in assay [6]. The experiment in a line: biochemical. The source holds these as a separate data set.
Target sequence in this assay (P52799 28-229): as the sequence (P52799 28-229) above
Target sequence in this assay (P29323 19-543): as the sequence (P29323 19-543) above
The target is the same in assay [7]. Put plainly: biochemical. This is another data set of the same source.
Target sequence in this assay (P29323 19-543): as above
Target sequence in this assay (P52799 28-229): as the sequence (P52799 28-229) above
The target is the same in assay [8]. The experiment in a line: biolayer interferometry, AUC of concentration series. The format is binding.
Target sequence in this assay (P29323 19-543): as the sequence (P29323 19-543) above
Target sequence in this assay (P52799 28-229): as the sequence (P52799 28-229) above
The target of assay [9] is EphrinB2 of mouse pancreatic stellate cells stimulated with mouse EphB2-Fc-His (Mus musculus, UniProt P52800+P54763). The experiment in a line: % pEphrinB2 by IP and immunoblot. The format is cell-based. (In general: A western blot detects proteins with antibodies after separation by electrophoresis.)
In assay [10] the target is T1, human EphB2-His ectodomain - human EphrinB2-Fc ectodomain (EphB2-EphrinB2 tetramer). Put plainly: biochemical. The source holds these as a separate data set.
Target sequence in this assay (P52799 28-229): as above
Target sequence in this assay (P29323 19-543): as the sequence (P29323 19-543) above
Assay [11] has the same target. Put plainly: biochemical. This is another data set of the same source.
Target sequence in this assay (P52799 28-229): as the sequence (P52799 28-229) above
Target sequence in this assay (P29323 19-543): as the sequence (P29323 19-543) above
Assay [12] shares this target. The experiment in a line: biochemical. This is another data set of the same source.
Target sequence in this assay (P52799 28-229): as the sequence (P52799 28-229) above
Target sequence in this assay (P29323 19-543): as the sequence (P29323 19-543) above

Sequence of EphrinB2-EphB1 (immobilized human EphrinB2, 25 nM soluble human EphB1) (P52799 whole entry, the tested form may be a part): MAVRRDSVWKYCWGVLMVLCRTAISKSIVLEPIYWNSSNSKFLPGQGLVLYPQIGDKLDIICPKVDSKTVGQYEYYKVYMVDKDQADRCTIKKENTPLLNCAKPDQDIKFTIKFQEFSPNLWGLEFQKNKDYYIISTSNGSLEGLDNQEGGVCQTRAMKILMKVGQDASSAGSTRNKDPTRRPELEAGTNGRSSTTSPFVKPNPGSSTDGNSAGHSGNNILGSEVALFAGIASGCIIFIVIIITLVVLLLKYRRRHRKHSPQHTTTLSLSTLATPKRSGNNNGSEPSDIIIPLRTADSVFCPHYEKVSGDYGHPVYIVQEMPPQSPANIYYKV
Sequence of EphrinB2-EphB1 (immobilized human EphrinB2, 25 nM soluble human EphB1) (P54762 whole entry, the tested form may be a part): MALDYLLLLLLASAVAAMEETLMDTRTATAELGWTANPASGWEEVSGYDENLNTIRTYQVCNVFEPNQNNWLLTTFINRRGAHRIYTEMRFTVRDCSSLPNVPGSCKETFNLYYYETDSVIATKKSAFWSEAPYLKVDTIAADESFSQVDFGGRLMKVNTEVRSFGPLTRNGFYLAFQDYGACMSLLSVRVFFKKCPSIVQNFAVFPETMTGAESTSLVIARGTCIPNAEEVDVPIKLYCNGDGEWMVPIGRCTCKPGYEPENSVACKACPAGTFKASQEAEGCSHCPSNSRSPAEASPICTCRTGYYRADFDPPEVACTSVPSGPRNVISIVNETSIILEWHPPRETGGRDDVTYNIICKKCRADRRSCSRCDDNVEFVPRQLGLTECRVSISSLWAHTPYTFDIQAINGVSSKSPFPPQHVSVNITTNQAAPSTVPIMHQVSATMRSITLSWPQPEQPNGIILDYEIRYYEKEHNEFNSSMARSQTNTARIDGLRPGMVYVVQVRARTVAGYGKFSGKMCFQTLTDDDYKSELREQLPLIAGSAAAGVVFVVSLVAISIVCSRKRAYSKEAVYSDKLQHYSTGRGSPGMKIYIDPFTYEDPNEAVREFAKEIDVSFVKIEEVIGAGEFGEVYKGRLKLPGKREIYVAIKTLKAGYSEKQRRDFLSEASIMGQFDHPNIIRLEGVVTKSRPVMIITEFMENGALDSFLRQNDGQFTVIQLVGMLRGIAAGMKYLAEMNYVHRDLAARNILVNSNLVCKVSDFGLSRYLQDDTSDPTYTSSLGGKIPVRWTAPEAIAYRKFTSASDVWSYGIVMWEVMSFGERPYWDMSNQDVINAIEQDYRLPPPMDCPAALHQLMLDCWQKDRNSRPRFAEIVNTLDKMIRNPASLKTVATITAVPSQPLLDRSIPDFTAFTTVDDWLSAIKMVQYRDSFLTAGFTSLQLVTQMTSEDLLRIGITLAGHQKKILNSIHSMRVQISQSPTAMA
Sequence of human EphB4-His ectodomain - human EphrinB2-Fc ectodomain (EphB4-EphrinB2) (P54760 16-539): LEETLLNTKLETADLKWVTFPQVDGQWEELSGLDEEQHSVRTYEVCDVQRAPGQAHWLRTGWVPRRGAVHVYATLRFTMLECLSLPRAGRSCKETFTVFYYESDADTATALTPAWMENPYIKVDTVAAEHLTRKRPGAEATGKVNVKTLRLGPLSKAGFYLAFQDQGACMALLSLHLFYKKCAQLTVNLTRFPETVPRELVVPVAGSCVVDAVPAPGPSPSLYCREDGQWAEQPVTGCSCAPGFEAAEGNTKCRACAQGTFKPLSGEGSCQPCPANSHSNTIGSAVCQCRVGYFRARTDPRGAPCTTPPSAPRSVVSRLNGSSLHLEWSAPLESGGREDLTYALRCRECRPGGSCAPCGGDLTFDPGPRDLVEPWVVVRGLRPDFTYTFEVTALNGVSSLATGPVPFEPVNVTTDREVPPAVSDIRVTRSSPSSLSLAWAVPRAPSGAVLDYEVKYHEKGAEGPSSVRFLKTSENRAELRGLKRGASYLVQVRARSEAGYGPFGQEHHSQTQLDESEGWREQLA
Sequence of human EphB4-His ectodomain - human EphrinB2-Fc ectodomain (EphB4-EphrinB2) (P52799 28-229): as the sequence (P52799 28-229) above
Sequence of EphB1-EphrinB2 (P54762 18-540 limits assumed): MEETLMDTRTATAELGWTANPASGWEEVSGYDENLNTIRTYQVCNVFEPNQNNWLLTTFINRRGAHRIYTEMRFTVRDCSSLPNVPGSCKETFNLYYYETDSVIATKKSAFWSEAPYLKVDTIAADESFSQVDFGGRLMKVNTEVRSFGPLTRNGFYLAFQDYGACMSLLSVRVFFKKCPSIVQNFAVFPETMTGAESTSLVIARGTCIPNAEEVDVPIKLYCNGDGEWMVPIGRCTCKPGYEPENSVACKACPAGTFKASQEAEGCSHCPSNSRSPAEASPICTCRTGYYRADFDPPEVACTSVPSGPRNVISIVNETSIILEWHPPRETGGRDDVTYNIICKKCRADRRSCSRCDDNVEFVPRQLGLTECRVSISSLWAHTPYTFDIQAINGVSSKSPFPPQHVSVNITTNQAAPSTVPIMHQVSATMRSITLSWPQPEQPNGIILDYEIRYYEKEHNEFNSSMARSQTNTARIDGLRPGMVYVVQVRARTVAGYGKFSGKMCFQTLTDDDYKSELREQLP
Sequence of EphB1-EphrinB2 (P52799 28-229 limits assumed): as the sequence (P52799 28-229) above

For the compound `Oc1c(I)cc(CN2CCOCC2)c2cccnc12` [A20-I], the inhibition at 3.2 µM in [1] amounted to 13.9%; in assay [3], 61.8%; at EphB1-EphrinB2, 36.6%; in assay [4], 32.6%. This compound showed an IC50 in assay [2] greater than 1.6 µM.
As for `CCOc1cc(C(Nc2cc(C)ccn2)c2ccc3cccnc3c2O)ccc1O` (centres unmarked) [SW039498], the IC50 in assay [5] and in assay [6] was greater than 3200 nM in each case.
With `Oc1c(Br)cc(CN2CCN(c3ccc(Br)cc3)CC2)c2cccnc12` [BQPB4], the IC50 in assay [7] was 280 nM; in assay [9] it was 1600 nM. This compound also came in with a Ki in [8] of 2.88 nM. The inhibition at 3.2 µM in assay [4] was 39.1%.
Compound `Oc1ccc(CSc2ccccc2)c2cccnc12` [SW160569, G15] had an inhibition constant (Ki) in [10] of 3.73 nM.
For `O=C(Oc1c(Cl)cc(Cl)c2cccnc12)c1ccc([N+](=O)[O-])cc1` [4a, 5,7-dichloro-8-quinolinyl 4-nitrobenzoate], the IC50 was roughly 31600 nM in [11] and 38000 nM in assay [12].
